Reference: EPA's ToxRefDB 2

Columns and labels:
primate = details: Subchronic oral toxicity in nonrodent, Gavage/Intubation, dose end: 91 day, group: systemic, systemic / in life observation / clinical signs / ataxia + systemic / in life observation / clinical signs / convulsions + systemic / in …
dog = details: Sub-acute repeat dose toxicity, beagle, Oral, Gavage/Intubation, dose end: 17 day, group: systemic
rat [1] = details: Prenatal developmental toxicity study, sprague dawley, Oral, Gavage/Intubation, dose end: 15 GD
rat [2] = details: Subchronic oral toxicity in rodents, other, Water, dose end: 90 day, group: systemic
rabbit [3] = details: Prenatal developmental toxicity study, chinchilla, Oral, Gavage/Intubation, dose end: 18 GD
rat [4] = details: Sub-acute repeat dose toxicity; sprague dawley; Oral; Gavage/Intubation; dose end: 4 week; group: systemic; systemic / clinical chemistry / alanine aminotransferase (alt/sgpt) / alanine aminotransferase (alt/sgpt) + systemic / clinical chemistry / …
rat [5] = details: Prenatal developmental toxicity study, sprague dawley, Oral, Gavage/Intubation, dose end: 17 GD, group: maternal
mouse [6] = details: Carcinogenicity, cd1, Oral, Water, dose end: 24 month, group: systemic
rabbit [7] = details: Prenatal developmental toxicity study, dutch, Oral, Gavage/Intubation, dose end: 18 GD
mouse [8] = details: Subchronic oral toxicity in rodents, b6c3f1, Water, dose end: 13 week, group: systemic
rat [9] = details: Combined chronic toxicity/carcinogenicity; sprague dawley; Oral; Water; dose end: 24 month; group: systemic; systemic / in life observation / mortality / mortality + systemic / pathology gross / kidney / calculus + systemic / pathology gross / …
mouse [10] = details: Carcinogenicity, b6c3f1, Oral, Water, dose end: 104 week, group: systemic
rat [11] = details: Subchronic oral toxicity in rodents, sprague dawley, Water, dose end: 13 week, group: systemic
rabbit [12] = details: Prenatal developmental toxicity study, new zealand white, Oral, Gavage/Intubation, dose end: 19 GD
rat [13] = details: Subchronic dermal toxicity, sprague dawley, Topical, dose end: 13 week, group: systemic, systemic / in life observation / clinical signs / desquamation + systemic / in life observation / clinical signs / erythema + systemic / in …
rat [14] = details: Combined chronic toxicity/carcinogenicity, sprague dawley, Oral, Water, dose end: 24 month, group: systemic
rat [15] = details: Sub-acute repeat dose toxicity, fischer, Oral, Gavage/Intubation, dose end: 16 day, group: systemic
rat [16] = details: Acute inhalation toxicity, fischer, Nose-Only, dose end: 28 day, group: systemic, systemic / pathology microscopic / nose / hyperplasia + systemic / pathology microscopic / nose / lesion(s) (nos) + systemic / pathology …
rat [17] = details: Subchronic oral toxicity in rodents, fischer, Gavage/Intubation, dose end: 13 week, group: systemic
rat [18] = details: Carcinogenicity; fischer; Oral; Gavage/Intubation; dose end: 103 week; group: systemic; systemic / pathology microscopic / liver / necrosis
mouse [19] = details: Carcinogenicity, b6c3f1, Oral, Gavage/Intubation, dose end: 103 week, group: systemic
mouse [20] = details: Subchronic oral toxicity in rodents, b6c3f1, Gavage/Intubation, dose end: 13 week, group: systemic
rat [21] = details: Sub-acute repeat dose toxicity; fischer; Oral; Gavage/Intubation; dose end: 28 day; group: systemic; systemic / in life observation / mortality / mortality + systemic / organ weight / kidney / absolute + systemic / organ weight / kidney / …
mouse [22] = details: Sub-acute repeat dose toxicity; b6c3f1; Oral; Gavage/Intubation; dose end: 16 day; group: systemic; systemic / in life observation / mortality / mortality
[23] = systemic / clinical chemistry / alanine aminotransferase (alt/sgpt) / alanine aminotransferase (alt/sgpt) + systemic / clinical chemistry / …
[24] = group: developmental, developmental / developmental malformation / bone / incomplete ossification
[25] = group: maternal, systemic / in life observation / body weight / body weight + systemic / in life observation / body weight / body weight gain + systemic / in…
[26] = systemic / in life observation / body weight / body weight + systemic / in life observation / clinical signs / fur (altered appearance) + …
[27] = group: developmental, developmental / developmental malformation / bone / unossified + systemic / in life observation / body weight / fetal weight
[28] = group: maternal, systemic / in life observation / body weight / body weight gain + systemic / in life observation / food consumption / food consumption
[29] = group: maternal, systemic / in life observation / body weight / body weight gain + systemic / in life observation / food consumption / food consumption + …
[30] = reproductive / reproductive performance / postimplantation loss / postimplantation loss + reproductive / reproductive performance / …
[31] = systemic / hematology / erythrocyte (rbc) count differential / erythrocyte (rbc) + systemic / hematology / hematocrit (hct) / hematocrit (…
[32] = group: developmental, developmental / developmental malformation / general / crown-rump length + systemic / in life observation / body weight / fetal weight
[33] = group: maternal, systemic / in life observation / body weight / body weight
[34] = systemic / pathology gross / urinary bladder / calculus
[35] = systemic / pathology gross / urinary bladder / calculus + systemic / pathology microscopic / urinary bladder / congestion
[36] = systemic / in life observation / clinical signs / distended abdomens + systemic / urinalysis / sodium / sodium
[37] = systemic / clinical chemistry / protein / protein
[38] = systemic / pathology gross / urinary bladder / calculus + systemic / pathology microscopic / urinary bladder / hyperplasia
[39] = group: developmental, developmental / developmental malformation / general / [other]
[40] = systemic / pathology microscopic / stomach / hyperkeratosis + systemic / pathology microscopic / stomach / hyperplasia + systemic / in life …
[41] = systemic / in life observation / clinical signs / labored respiration + systemic / in life observation / clinical signs / reduced activity…
[42] = systemic / in life observation / mortality / mortality + systemic / organ weight / kidney / absolute + systemic / organ weight / kidney / …
[43] = systemic / pathology microscopic / liver / vacuolization cytoplasmic
[44] = systemic / pathology microscopic / kidney / carcinoma + systemic / pathology microscopic / stomach / hyperplasia
[45] = systemic / organ weight / liver / relative to body weight

## Cl.NCC1(Cc2noc(=O)[nH]2)CCCCC1
primate
  LEL: 250 mg/kg/day
  LOAEL: > 1500 mg/kg/day
  NEL: 50 mg/kg/day
  NOAEL: ≥ 1500 mg/kg/day

## CC(C)(O)c1cnn2c(-c3ccc(F)c(-c4c(F)cccc4C#N)c3)cnc2n1
dog; [23]
  LOAEL: > 15 mg/kg/day
  NEL: 0.5 mg/kg/day
  NOAEL: ≥ 15 mg/kg/day
dog; systemic / clinical chemistry / albumin / albumin
  LEL: 2.5 mg/kg/day

## CCCCCCCCCCCCCC[P+](CCCC)(CCCC)CCCC.[Cl-] [Tributyltetradecylphosphonium chloride]
Rat [1]; [24]
  LEL: 30 mg/kg/day
  LOAEL: 30 mg/kg/day
  NEL: 10 mg/kg/day
  NOAEL: 10 mg/kg/day
Rat [1]; [25]
  LOAEL: 120 mg/kg/day
  NEL: 20 mg/kg/day
  NOAEL: 60 mg/kg/day
Rat [1]; group: maternal, systemic / in life observation / food consumption / food consumption + systemic / in life observation / clinical signs / respiration (…
  LEL: 60 mg/kg/day
Rat [2]; [26]
  LOAEL: 27.2 mg/kg/day
  NEL: 2.56 mg/kg/day
  NOAEL: 8.66 mg/kg/day
Rat [2]; systemic / organ weight / kidney / relative to body weight
  LEL: 8.66 mg/kg/day
Rabbit [3]; [27]
  LEL: 11.2 mg/kg/day
  LOAEL: 11.2 mg/kg/day
  NEL: 3.75 mg/kg/day
  NOAEL: 3.75 mg/kg/day
Rabbit [3]; [28]
  LEL: 11.2 mg/kg/day
  LOAEL: 11.2 mg/kg/day
Rabbit [3]; [29]
  NEL: 3.75 mg/kg/day
  NOAEL: 3.75 mg/kg/day

## O=C(O)c1ccccc1-n1cc(C(=O)O)c(=O)c2cc(Nc3c(F)cc(F)cc3Cl)c(Cl)cc21 [AVE9423]
Rat [4]
  LEL: 200 mg/kg/day
  LOAEL: 200 mg/kg/day
  NEL: 20 mg/kg/day
  NOAEL: 20 mg/kg/day
Rat [5]; [30]
  LOAEL: > 1000 mg/kg/day
  NEL: 40 mg/kg/day
  NOAEL: ≥ 1000 mg/kg/day
Rat [5]; reproductive / reproductive performance / postimplantation loss / postimplantation loss + systemic / in life observation / body weight / …
  LEL: 200 mg/kg/day

## CN(C)N [1,1-Dimethylhydrazine]
Mouse [6]; [31]
  LEL: 1.41 mg/kg/day
  NEL: 0.269 mg/kg/day
Mouse [6]; systemic / pathology microscopic / liver / hyperplasia + systemic / pathology microscopic / liver / pigmentation
  LOAEL: 1.91 mg/kg/day
Mouse [6]; systemic / pathology microscopic / liver / hyperplasia + systemic / pathology microscopic / liver / pigmentation + systemic / in life …
  NOAEL: 0.97 mg/kg/day

## O=c1[n-]c(=O)[nH]c(=O)[nH]1.[Na+] [Sodium cyanurate]
Rabbit [7]; [32]
  LEL: 500 mg/kg/day
  LOAEL: 500 mg/kg/day
  NEL: 200 mg/kg/day
  NOAEL: 200 mg/kg/day
Rabbit [7]; [33]
  LEL: 200 mg/kg/day
  LOAEL: 200 mg/kg/day
  NEL: 50 mg/kg/day
  NOAEL: 50 mg/kg/day
Mouse [8]; [34]
  LEL: 252 mg/kg/day
  NEL: < 252 mg/kg/day
Mouse [8]; [35]
  LOAEL: 1990 mg/kg/day
  NOAEL: 522 mg/kg/day
Rat [9]
  LEL: 371 mg/kg/day
  LOAEL: 371 mg/kg/day
  NEL: 154 mg/kg/day
  NOAEL: 154 mg/kg/day
Mouse [10]; systemic / in life observation / body weight / body weight gain
  LEL: 100 mg/kg/day
Mouse [10]; systemic / in life observation / body weight / body weight gain + systemic / in life observation / clinical signs / distended abdomens + …
  NEL: 25.9 mg/kg/day
Mouse [10]; [36]
  LOAEL: > 1520 mg/kg/day
  NOAEL: ≥ 1520 mg/kg/day
Rat [11]; [37]
  LEL: 132 mg/kg/day
  NEL: < 132 mg/kg/day
Rat [11]; [38]
  LOAEL: > 672 mg/kg/day
  NOAEL: ≥ 672 mg/kg/day

## Cn1sc(Cl)cc1=O [5-Chloro-2-methyl-3(2H)-isothiazolone]
Rabbit [12]; [39]
  LEL: 8 mg/kg/day
  LOAEL: 8 mg/kg/day
  NEL: 2 mg/kg/day
  NOAEL: 2 mg/kg/day
Rabbit [12]; [25]
  LEL: 8 mg/kg/day
  LOAEL: 8 mg/kg/day
  NEL: 2 mg/kg/day
  NOAEL: 2 mg/kg/day
Rat [13]
  LEL: 0.75 mg/kg/day
  LOAEL: 0.75 mg/kg/day
  NEL: < 0.75 mg/kg/day
  NOAEL: < 0.75 mg/kg/day
Rat [14]; systemic / pathology microscopic / stomach / hyperkeratosis + systemic / pathology microscopic / stomach / hyperplasia
  LOAEL: 6.6 mg/kg/day
Rat [14]; [40]
  NEL: 2 mg/kg/day
  NOAEL: 2 mg/kg/day
Rat [14]; systemic / pathology microscopic / stomach / hyperkeratosis + systemic / pathology microscopic / stomach / hyperplasia + systemic / …
  LEL: 6.6 mg/kg/day

## O=Cc1ccco1 [Furfural]
Rat [15]; [41]
  LOAEL: > 240 mg/kg/day
  NEL: 60 mg/kg/day
  NOAEL: ≥ 240 mg/kg/day
Rat [15]; systemic / in life observation / clinical signs / reduced activity
  LEL: 120 mg/kg/day
Rat [16]
  LEL: 6 mg/kg/day
  LOAEL: > 368 mg/kg/day
  NEL: < 6 mg/kg/day
  NOAEL: ≥ 368 mg/kg/day
Rat [17]; [42]
  LOAEL: > 180 mg/kg/day
  NOAEL: ≥ 180 mg/kg/day
Rat [17]; [43]
  LEL: 11 mg/kg/day
  NEL: < 11 mg/kg/day
Rat [18]
  LEL: 30 mg/kg/day
  LOAEL: 30 mg/kg/day
  NEL: < 30 mg/kg/day
  NOAEL: < 30 mg/kg/day
Mouse [19]; [44]
  LEL: 50 mg/kg/day
  NEL: < 50 mg/kg/day
Mouse [19]; systemic / pathology microscopic / liver / inflammation + systemic / pathology microscopic / liver / pigmentation
  LOAEL: 100 mg/kg/day
Mouse [19]; systemic / pathology microscopic / liver / inflammation + systemic / pathology microscopic / liver / pigmentation + systemic / pathology …
  NOAEL: 50 mg/kg/day
Mouse [20]; [45]
  LEL: 75 mg/kg/day
  NEL: < 75 mg/kg/day
Mouse [20]; systemic / pathology microscopic / liver / inflammation + systemic / pathology microscopic / liver / necrosis
  LOAEL: 150 mg/kg/day
Mouse [20]; systemic / pathology microscopic / liver / inflammation + systemic / pathology microscopic / liver / necrosis + systemic / in life …
  NOAEL: 75 mg/kg/day
Rat [21]
  LEL: 192 mg/kg/day
  LOAEL: 192 mg/kg/day
  NEL: 96 mg/kg/day
  NOAEL: 96 mg/kg/day
Mouse [22]
  LEL: 400 mg/kg/day
  LOAEL: > 400 mg/kg/day
  NEL: 200 mg/kg/day
  NOAEL: ≥ 400 mg/kg/day
